Tests used:
Assay type in all cases: physicochemical
[1] = leaching of Japan cedar blocks, powdery treatment agent stored 2 weeks (Example 21); details: 5 g in 100 ml; for Elution Rate (%) LSA: powdery agent (10 mg enzyme + 10 g LSA + agent) stored 2 weeks, Japan cedar; for Elution Rate (%) Chemical Agent: powdery agent stored 2 weeks, species as bracketed (Copper, Zinc, Nickel, Boron, H = hinokitiol), else the agent named
Description: 10 mg of the freeze-dried product described in Example 1, 10 g of commercially available lignosulfonic acid (LSA) powder, and various chemical agents were mixed well in a mortar to obtain a treatment agent for treating a porous article. If desired, a small amount of sodium carbonate powder was added to the resulting powder and mixed well, so that when a 5% aqueous solution was prepared from the above-described powder the solution could have a pH of 8.0 to 9.0. Then, after the powdery treatment agent was left to stand at room temperature for 2 weeks, 5 g of the powder was dissolved in 100 ml of deionized water to prepare a solution for treating a porous article. Using this solution, Japan cedar wood blocks were subjected to reduced pressure impregnation, drying/macromolecularization reaction, and leaching in the same manner as in Examples 3 and 4. Taking the amounts of lignosulfonic acid and chemical agents injected upon the impregnation treatment as 100%, respectively, the amounts of them which was eluted were compared. The results are shown in Table 12, from which it can be seen that the powdery treatment agent enables effective treatment of porous articles.

[2] = leaching of Japan cedar blocks, liquid treatment agent stored 2 weeks (Example 21); details: diluted 10-fold; for Elution Rate (%) LSA: liquid agent (6 g powder in 12 ml) stored airtight 2 weeks, Japan cedar; for Elution Rate (%) Chemical Agent: liquid agent stored airtight 2 weeks, species as bracketed (Copper, Zinc, Nickel, Boron, H = hinokitiol), else the agent named
Description: Further, 6 g of the powdery treatment agent obtained in the same manner as described above was dissolved in 12 ml of deionized water to obtain a liquid treatment agent for a porous article. The liquid treatment agent was transferred into a 20 ml screw capped test tube. After the test tube stand airtightly at room temperature for 2 weeks, the liquid treatment agent was diluted 10-fold with deionized water to prepare a solution for treating a porous article. Japan cedar wood blocks were subjected to reduced pressure impregnation treatment with the solution thus obtained, drying/macromolecularization reaction, and elution treatment in the same manner as in Examples 3 and 4. The amounts of the lignosulfonic acid which were eluted were calculated and compared taking the amounts of it injected upon the impregnation treatment as 100%.

[3] = leaching of Japan cedar blocks treated with LSA and chemical agents (Example 4); details: 5% LSA; for Elution Rate (%) Chemical Agent: species measured as bracketed (Copper, Zinc, Nickel, Boron, H = hinokitiol), else the agent named
Description: For chemical agents having low solubilities, they were added to aqueous lignosulfonic acid solution after it was warmed to 60 to 90° C., and it was cooled at 25° C. after the chemical agents were suspended, dispersed, dissolved by Vortex-Mixer, […]
The amount of lignosulfonic acid which leached off was determined by measurement of the absorbance at 280 nm, and the amount of the chemical agent which leached off was determined by complex formation and spectrophotometry using PAN (1-(2-pyridylazo)-2-naphthol, Aldrich Chemical Company) or quinalizarin (Wako Pure Chemicals), separation, identification and determination, using HPLC or gas chromatography, or atomic absorption analysis were performed, followed by calculation of the amount of the chemical agents which was eluted. When the chemical agents had absorption at 280 nm, the concentration of lignosulfonic acid was calculated by measuring the absorbance at 280 nm of the chemical agents of which the concentration was measured by the above-described method and subtracting an influence by the chemical agent from the absorbance at 280 nm of the liquid which was eluted. The amounts of the chemical agents and lignosulfonic acid which were eluted were calculated and compared taking the amounts of them injected upon the impregnation treatment as 100%.

[4] = leaching of cypress blocks, bilirubin oxidase (Example 6); details: for Elution Rate (%) LSA: pH 8.1-8.8; for Elution Rate (%) Chemical Agent: pH 8.1-8.8, species as bracketed (Copper, Zinc, Nickel, Boron, H = hinokitiol), else the agent named
Text: Taking the amounts of the lignosulfonic acid (LSA) and chemical agent as injected upon the impregnation treatment as 100%, respectively, the amounts of the substances which were eluted were compared.

[5] = leaching of Japan cedar blocks, treating mixture with tung oil (Example 8); details: Example 1 enzyme, 5% LSA, 2,000 ppm tung oil; for Elution Rate (%) LSA: pH 8.1-8.5; for Elution Rate (%) Chemical Agent: pH 8.1-8.5, species as bracketed (Copper, Zinc, Nickel, H = hinokitiol), else the agent named
Description: The amounts of the chemical agents and lignosulfonic acid which were eluted were calculated and compared taking the amounts of them injected upon the impregnation treatment as 100%.

[6] = leaching of cypress blocks, peroxidase + alcohol oxidase (Example 7); details: 5 U/ml peroxidase + 5 U/ml alcohol oxidase + 1% methanol
Text: The peroxidase used was obtained from horse radish (Type II, Sigma) and the alcohol oxidase used was obtained from Candida boidini (Boehringer Mannheim Biochemica).

[7] = in the absence of enzyme (comparison), pH 8.1-8.8
[8] = in the presence of enzyme, Japan cedar, pH of treating agent 8.1-8.8
[9] = in the presence of enzyme, pH 8.1-8.8

Compound | Elution Rate (%) LSA [1] [%] | Elution Rate (%) Chemical Agent [1] [%] | Elution Rate (%) LSA [2] [%] | Elution Rate (%) LSA [3, 7] [%] | Elution Rate (%) Chemical Agent [3, 7] [%] | Elution Rate (%) LSA [3, 8] [%] | Elution Rate (%) Chemical Agent [3, 9] [%] | Elution Rate (%) LSA [4] [%] | Elution Rate (%) Chemical Agent [4] [%] | Elution Rate (%) LSA [5] [%] | Elution Rate (%) Chemical Agent [5] [%] | Elution Rate (%) LSA ([6]; pH 8.1-8.8) [%] | Elution Rate (%) Chemical Agent ([6]; pH 8.1-8.8, species as bracketed (Copper, Zinc, Boron, H = hinokitiol), else the agent named) [%] | Elution Rate (%) Chemical Agent [2] [%]
OB(O)O [Boric acid (2 g), Boric acid] | 0.6 | 18.1 | 0.6 |  |  |  |  |  |  |  |  |  |  | 
O=CC=Cc1ccccc1 [100 ppm Cinnamaldehyde, Cinnamaldehyde] |  |  |  | 22.1 | 8.5 | 1.5 | 0.7 | 5.4 | 2.1 | 1.9 | 0.2 |  |  | 
CC1=CCC(C(C)(C)O)CC1 (stereo not drawn) [500 ppm α-terpineol, α-terpineol] |  |  |  | 24.5 | 9.1 | 0.7 | 0.6 | 1.1 | 1.4 | 0.6 | 0.3 |  |  | 
CC12CCC(CC1)C(C)(C)O2 [500 ppm cineole, cineole] |  |  |  | 25.7 | 6.2 | 0.5 | 0.2 | 0.8 | 0.6 | 0.5 | 0.2 |  |  | 
OB(O)O [1% Boric acid, Boric acid] |  |  |  | 22.1 | 32.3 | 0.7 | 25.1 | 3.7 | 26.2 |  |  | 5.6 | 27.5 | 
CC(C)=CCCC(C)=CC=O [100 ppm citral, citral] |  |  |  | 23.4 | 7.1 | 2.5 | 1.8 | 7.9 | 6.0 |  |  |  |  | 
CC1=CC[C@@H]2C[C@H]1C2(C)C [500 ppm (1R)-(+)-α-pinene, (1R)-(+)-α-pinene] |  |  |  | 22.8 | 7.3 | 0.6 | 0.3 | 1.0 | 1.2 | 0.7 | 0.2 |  |  | 
Nc1ccccc1N [o-Phenylenediamine (0.04 g), o-Phenylenediamine] | 1.5 | 0.4 | 2.1 |  |  |  |  |  |  |  |  |  |  | 0.8
CC(C)c1cccc(=O)c(O)c1 [Hinokitiol (0.2 g), Hinokitiol] | 0.6 | 3.0 | 0.4 |  |  |  |  |  |  |  |  |  |  | 2.5
(+)-Catechin.H2O [(+)-Catechin.H2O (0.2 g)] | 2.9 | 3.2 | 2.0 |  |  |  |  |  |  |  |  |  |  | 3.4
CC1CCC(C(C)C)C(O)C1 [500 ppm (1R,2S,5R)-(−)-menthol, (1R,2S,5R)-(−)-menthol] |  |  |  | 27.4 | 7.5 | 0.5 | 0.2 | 2.8 | 1.3 | 0.6 | 0.4 |  |  | 
CC(C)=CCCC(C)CCO (stereo not drawn) [100 ppm β-citronellol, β-citronellol] |  |  |  | 25.4 | 6.8 | 0.7 | 0.4 | 2.9 | 0.8 | 1.7 | 0.2 |  |  | 
O=C(OC[C@H]1O[C@@H](OC(=O)c2cc(O)c(O)c(OC(=O)c3cc(O)c(O)c(O)c3)c2)[C@H](OC(=O)c2cc(O)c(O)c(OC(=O)c3cc(O)c(O)c(O)c3)c2)[C@@H](OC(=O)c2cc(O)c(O)c(OC(=O)c3cc(O)c(O)c(O)c3)c2)[C@@H]1OC(=O)c1cc(O)c(O)c(OC(=O)c2cc(O)c(O)c(O)c2)c1)c1cc(O)c(O)c(OC(=O)c2cc(O)c(O)c(O)c2)c1 [Tannic acid (0.1 g), Tannic acid] | 3.6 | 4.2 | 3.7 |  |  |  |  |  |  |  |  |  |  | 4.6
Cc1cc2cccc(C)c2cc1C [10 ppm 2,3,5-Trimethylnaphthalene, 2,3,5-Trimethylnaphthalene] |  |  |  | 23.3 | 5.6 | 0.8 | 0.1 | 2.4 | 0.3 |  |  |  |  | 
Nc1ccccc1N [200 ppm o-Phenylenediamine, o-Phenylenediamine] |  |  |  | 16.5 | 5.3 | 1.0 | 0.2 | 2.5 | 0.6 |  |  |  |  | 
C=CCN=C=S [100 ppm Allyl isothiocyanate, Allyl isothiocyanate] |  |  |  | 26.3 | 7.5 | 3.5 | 2.2 | 8.5 | 7.8 | 2.1 | 1.3 |  |  | 
